In patent publication US10513529B2, “1,2,4-triazolo-[3,4-b]-1,3,4-thiadiazole derivatives” (GALENICA S.A., priority 2016, dated 2019):

What was measured:
in vivo = details: both sexes, mouse, in vivo, ip; C57BI/6 mice, acute toxicity
Method in brief: (§1)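 Acute toxicity in male and female C57BI/6 mice, judged by lethality. Compounds given i.p. at several doses starting at 100mg/kg. Dosed as a suspension in corn oil after initial dissolution in 10% DMSO.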

C57BI/6 mice = test: in vivo; details: i.p., acute toxicity
Method in brief: as §1

[1] = test system: UWB1.289 + BRCA1 human ovarian cancer cell line; test: MTT cytostatic-cytotoxic activity, UWB1.289+BRCA1; assay type: cell-based
Method in brief: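 BRCA1-restored UWB1.289 ovarian cells in McCoy's 5a/RPMI-MEGM with 10% FBS, seeded 24 hours before 48 h treatment with 1-100 μmol/l compound, triplicate wells. Viability by MTT, 3 h, absorbance 540 nm. GI50, TGI and IC50 computed from treated versus 24 h and 72 h control readings.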

[2] = test system: PC-3 human hormone-resistant prostate cancer cell line; test: MTT cytostatic-cytotoxic activity, PC-3; assay type: cell-based; details: PC-3, 48 h treatment
[3] = test system: UWB1.289 human ovarian cancer cell line (mutant BRCA1); test: MTT cytostatic-cytotoxic activity, UWB1.289; assay type: cell-based
Method in brief: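 UWB1.289 cells (BRCA1-null, p53-mutant) were seeded at 1×10^4 cells/ml per well and treated after 24 h with 1-100 μmol/l compound for 48 h, in triplicate. Viability was read by MTT (3 h, DMSO solubilisation, 540 nm). GI50, TGI and IC50 came from treated versus 24 h and 72 h control absorbances.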

[4] = test system: SKOV-3 human ovarian cancer cell line; test: MTT cytostatic-cytotoxic activity, SKOV-3; assay type: cell-based
Method in brief: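 SKOV-3 and OVCAR-3 cells seeded at 1×10^4 cells/ml, treated after 24 h with 1-100 μmol/l compound for 48 h in triplicate. Viability by MTT (3 h, 37 °C), absorbance at 540 nm; GI50, TGI and IC50 computed from treated versus 24 h and 72 h control readings.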

[5] = test system: T-47D human breast cancer cell line; test: MTT cytostatic-cytotoxic activity, T-47D; assay type: cell-based; details: 48 h treatment

Compound: COc1cc(Cc2nnc3sc(-c4ccccc4)nn23)c(S(=O)(=O)N(C)C)cc1OC [TS167, 3-[2-(N,N-dimethylsulfamoyI)-4,5-dimethoxy-benzyl]-6-phenyl-1,2,4-triazolo[3,4-b]-1,3,4-thiazole]
- LD50 (in vivo): > 500 mg/kg
- LD10 (C57BI/6 mice): >500 mg/kg
- LD50 (C57BI/6 mice): >500 mg/kg
- GI50 ([1]; Homo sapiens, UWB1289, UWB1.289+BRCA1, 48 h treatment): 76 µM
- IC50 ([1]; Homo sapiens, UWB1289, UWB1.289+BRCA1, 48 h treatment, kills 50% of the cells): > 100 µM
- TGI ([1]; UWB1.289+BRCA1, 48 h treatment): >100 µM
- GI50 ([2]; Homo sapiens): 62 µM
- IC50 ([2]; Homo sapiens, kills 50% of the cells): > 100 µM
- TGI [2]: >100 µM
- GI50 ([3]; Homo sapiens, UWB1289, 48 h, UWB1.289, 48 h treatment): 56 µM
- IC50 ([3]; Homo sapiens, UWB1289, UWB1.289, 48 h treatment, kills 50% of the cells): > 100 µM
- TGI ([3]; UWB1.289, 48 h treatment): >100 µM
- GI50 ([4]; Homo sapiens, SK-OV-3, SKOV-3, 48 h treatment): 80 µM
- IC50 ([4]; Homo sapiens, SK-OV-3, SKOV-3, 48 h treatment, kills 50% of the cells): > 100 µM
- TGI ([4]; SKOV-3, 48 h treatment): >100 µM
- TGI [5]: >100 µM
- GI50 ([5]; Homo sapiens, T47D, 48 h): 52 µM
- IC50 ([5]; Homo sapiens, T47D, kills 50% of the cells): > 100 µM
